# Measurements as given in patent publication CN107308170A, “药物联用在制备抗炎药物中的应用以及抗炎药物组合物” (priority 2017, dated 2017).
# Legend:
# [1] = tested on: Hep-2 cells (Hep-2细胞); type: cell-based; conditions: 3 days, MTT
# [2] = tested on: xylene-induced swelling of the mouse right ear (二甲苯所致的小鼠右耳肿胀); assay: 二甲苯致小鼠耳肿胀抗炎试验 (xylene-induced mouse ear swelling test); type: in vivo; conditions: oral gavage; for inhibition of xylene-induced right ear swelling (in words) / swelling degree compared with aspirin (in words): used alone, 10mg/kg; for swelling degree compared with aspirin (in words): versus aspirin 150mg/kg
smiles,measurement,setting,value
C[C@]12CC[C@H](O)C[C@H]1CC[C@@H]1[C@@H]2CC[C@]2(C)[C@@H](c3ccc(=O)oc3)CC[C@]12O [蟾毒灵],CC50 compared with the three-component combination (in words),[1],远远小于蟾毒灵、酯蟾毒配基以及远华蟾蜍精三者的组合
same,inhibition of xylene-induced right ear swelling (in words),[2]; 5 days,能够抑制二甲苯所致的小鼠右耳肿胀
same,swelling degree compared with aspirin (in words),[2]; 5 days,肿胀度大于阳性对照药阿司匹林
"CC(=O)Oc1ccccc1C(=O)O [阿司匹林, reference compound]",swelling degree,"[2]; aspirin 150mg/kg, once daily for 5 days, xylene 50μL on right ear 1h after last dose, ears weighed 1h later",8.56 mg
same,anti-inflammatory effect compared between aspirin and test substances (in words),"[2]; aspirin 150mg/kg, test substances 10mg/kg, 5 days",优于蟾毒灵、酯蟾毒配基或远华蟾蜍精
C[C@]12CC[C@H](O)C[C@@]1(O)CC[C@@H]1[C@@H]2CC[C@]2(C)[C@@H](c3ccc(=O)oc3)CC[C@]12O [远华蟾蜍精],CC50 compared with the three-component combination (in words),[1],远远小于蟾毒灵、酯蟾毒配基以及远华蟾蜍精三者的组合
same,inhibition of xylene-induced right ear swelling (in words),[2]; 5 days,能够抑制二甲苯所致的小鼠右耳肿胀
same,swelling degree compared with aspirin (in words),[2]; 5 days,肿胀度大于阳性对照药阿司匹林
C[C@]12CC[C@H](O)C[C@H]1CC[C@@H]1[C@@H]2CC[C@]2(C)[C@@H](c3ccc(=O)oc3)C[C@H]3O[C@]132 [酯蟾毒配基],CC50 compared with the three-component combination (in words),[1],远远小于蟾毒灵、酯蟾毒配基以及远华蟾蜍精三者的组合
same,inhibition of xylene-induced right ear swelling (in words),[2]; 5 days,能够抑制二甲苯所致的小鼠右耳肿胀
same,swelling degree compared with aspirin (in words),[2]; 5 days,肿胀度大于阳性对照药阿司匹林
